This is an account of results in patent US20210121505A1, “COMPOSITIONS AND METHODS FOR TREATING INFLAMMATORY BOWEL DISEASES” (Seres Therapeutics, Inc., priority 2018, published 2021).

Assay [1] has as its system intestinal epithelial cells (HT29). The assay is described as follows: IL-8 secretion assay, TNF-α-stimulated intestinal epithelial cells. To be noted: bile acid 62.5, 125, 250 μM, 1.25 ng/mL TNF-α, relative to no bile acid control, FIG. 6. The assay is classed as cell-based. How it is done: Since IBD primarily affects the intestinal tissues, whether the anti-inflammatory effects observed in monocytes and PBMCs were also true in intestinal epithelial cells (HT29) was assessed as described below.
HT29 cells, cultured in McCoys Medium supplemented with 10% FBS, GlutaMAX and Pen/Strep were plated at a density of 50 k cells/well in 96-well format and allowed to grow for 5 days until fully confluent. Culture medium was changed every two days. On day 5, cells were pre-treated for 1 hour with 250 μM, 125 μM or 62.5 μM bile acid compounds before exposure to 1.25 ng/mL TNF-α. Cells were incubated overnight (16 h) and culture supernatants were collected for IL-8 protein quantification by ELISA. IL-8 levels of test samples were normalized to inflammatory controls, DMSO pre-treated samples (i.e., no bile acids) that were exposed to the 1.25 ng/mL TNF-α.

Assay [2] deals with LPS-stimulated peripheral blood mononuclear cells (PBMCs). The assay is described as follows: TNF-α and IL-10 secretion assay, LPS-stimulated PBMCs. To be noted: LPS-activated PBMCs; bile acid 12.5, 25, 50 μM; LPS 1 ng/mL; FIGS. 4A and 4B. The format is cell-based, Human. How it is done:
To better understand the possible relationship between the increased level of certain secondary bile acids and ulcerative colitis remission, monocytes and PBMCs were activated with LPS in the presence of varying concentrations of different primary and secondary bile acids in their conjugated and unconjugated forms. The amount of TNF-α and IL-10 produced by the activated cells was measured as described below.
Human buffy coat was obtained from Bioreclamation and shipped overnight on ice. Buffy coat was diluted 1:1 with PBS and layered on top of a Ficoll-Paque (GE Healthcare Cat #17-1440-03) in 50 mL falcon tubes. Samples were spun at 500×g for 20 min at room temperature with no brake. PBMCs were aspirated at the […] gradient layer and washed 3 times with PBS. Cells were counted with a hemocytometer to determine cell viability and concentration. Cells were plated onto 96 well plate and incubated at 37 C, 5% CO2 for 1 hour. Following this, bile acids were added at a final concentration of 12.5 μM, 25 μM and 50 μM for one hour prior to addition of LPS (1 ng/mL). After incubation of 16-20 hours, the cell culture media were collected for cytokine analysis. Cytokines were assayed using the Milliplex Human Cytokine kit (Luminex; Millipore), assaying IL-10 and TNF-α. Monocytes were isolated from PBMCs using the Miltenyi Biotec Pan Monocyte Isolation Kit (Cat No: 130-096-537) as per manufacturer's instructions and assayed as described above.

SMILES strings stand for the structures.

`CC(CCC(=O)NCC(=O)O)C1CCC2C3CCC4CC(O)CCC4(C)C3CC(O)C12C` (stereo not drawn) [gDCA, glyco-deoxycholic acid]: the IL-8 production result in assay [1] was “decreased IL-8 production in a dose-dependent manner”. The “anti-inflammatory effects (higher IL-10, lower TNF-α)” value in assay [2] was “greatest anti-inflammatory effects”.
In the case of `C[C@H](CCC(=O)NCCS(=O)(=O)O)[C@H]1CC[C@H]2[C@@H]3CC[C@@H]4C[C@H](O)CC[C@]4(C)[C@H]3C[C@H](O)[C@]12C` [tDCA, tauro-deoxycholic acid], in assay [1], the IL-8 production result is on record as “decreased IL-8 production in a dose-dependent manner”. Besides, in assay [2], the “anti-inflammatory effects (higher IL-10, lower TNF-α)” value is on record as “greatest anti-inflammatory effects”.
Turning to `C[C@H](CCC(=O)NCCS(=O)(=O)O)[C@H]1CC[C@H]2[C@@H]3CC[C@@H]4C[C@H](OS(=O)(=O)O)CC[C@]4(C)[C@H]3CC[C@]12C` [tLCA, tauro-sulfo-lithocholic acid], in assay [1], the IL-8 production result is “decreased IL-8 production in a dose-dependent manner”. For the same molecule, the “anti-inflammatory effects (higher IL-10, lower TNF-α)” value in assay [2] is on record as “greatest anti-inflammatory effects”.
